Experimental data from patent publication US20090281077A1, “Cyclic sulfones useful as mitochondrial sodium-calcium exchangers” (priority 2006, published 2009).

Target: T1, mitochondrial sodium-calcium exchanger (mNCE) (Rattus norvegicus, UniProt Q6AXS0)
T1 construct: from tissue; host or cells: rat whole brain, isolated mitochondria
T1 sequence (Q6AXS0 27-585): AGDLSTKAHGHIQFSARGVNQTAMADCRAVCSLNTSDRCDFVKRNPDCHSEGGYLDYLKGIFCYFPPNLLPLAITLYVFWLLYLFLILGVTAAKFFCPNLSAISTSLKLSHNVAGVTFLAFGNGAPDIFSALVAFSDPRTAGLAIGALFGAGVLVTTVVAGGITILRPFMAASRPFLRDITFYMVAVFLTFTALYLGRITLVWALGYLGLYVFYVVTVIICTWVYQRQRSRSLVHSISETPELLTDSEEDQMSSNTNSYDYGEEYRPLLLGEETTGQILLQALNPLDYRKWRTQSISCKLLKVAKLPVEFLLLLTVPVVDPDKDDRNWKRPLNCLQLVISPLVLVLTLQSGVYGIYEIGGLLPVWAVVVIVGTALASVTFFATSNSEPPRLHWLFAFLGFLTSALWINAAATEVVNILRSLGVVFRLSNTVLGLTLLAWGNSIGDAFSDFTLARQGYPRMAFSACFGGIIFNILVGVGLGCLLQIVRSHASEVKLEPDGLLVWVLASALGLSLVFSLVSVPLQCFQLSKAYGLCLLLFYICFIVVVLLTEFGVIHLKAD
Assay: Measurement of the Na-Ca exchanger of rat brain mitochondria (Na-induced Ca-release, Oregon Green fluorescence)
Assay type: biochemical
Settings: isolated rat brain mitochondria; Ca-efflux rates induced by 20 mM NaCl; rt
Method: The method is adapted from the method of Rosenthal et al. [J. Cereb. Blood Flow Metab., 7, 752-758 (1987)].
MSH+: 225 mM mannitol, 75 mM sucrose, 5 mM Hepes, 0.5 mM EDTA, 1 mg/ml of BSA (essentially free fatty acid free); final pH=7.3.
MSH−: Equal to MSH+, but without EDTA.
Nagarse solution: 5 mg of nagarse (bacterial protease type XXIV from Sigma, St. Louis, USA, catalogue # P-8038) dissolved in 1 ml of MSH+.
Digitonin solution: 10% W/V in DMSO.
The entire procedure is performed on ice. Remove the whole brain from the rat (1 brain=2 g). Add the tissue to cold MSH+in a beaker on ice. Cut the tissue into small pieces using scissors and wash the tissue 2 times with MSH+. Transfer the tissue into a 20 ml Dounce homogenizer and set level to about 9 ml with MSH+. Add 1 ml of freshly made Nagarse solution. Homogenize (6 strokes with a loose and 6 strokes with a tight pestle). […] The protein concentration is determined using the Pierce BCA assay (Pierce, Rockford Ill., USA). […]
In a typical experiment 96-well microtiter plates (flat bottom) are used. […] Distribute in a 96-well plate 5 μl/well of 2 μM ruthenium red [in 120 mM KCl and 20 mM Tris (pH=7.4)] and the compounds (in DMSO) to be analyzed (1 μl/well). […] Measure the Ca-release induced by the addition of Na by monitoring the Oregon Green fluorescence (485 nm and 538 nm monochromators for excitation and emission, respectively). […]

O=C1CS(=O)(=O)C(c2ccccc2Cl)c2cc(Cl)ccc2N1 (stereo not shown) [Example 1, 2-Chloro-9-(2-chlorophenyl)-8,8-dioxo-5,7,8,9-tetrahydro-8lambda*6*-thia-5-aza-benzocyclohepten-6-one] gave an IC50 of 3.8 µM.
